Here are results for 10 molecules from patent publication US9422306B2, “Artemisinin compounds and synthesis and use thereof” (University of Washington Through Its Center for …, priority 2012, dated 2016).

Like-named read-outs stand apart in the source and are kept apart here.

The term IC50 denotes the point on the concentration scale where inhibition reaches its midpoint.

In one series the test system is MDA-MB-231 cells. The series is described as follows: MTT cell viability assay, MDA-MB-231 breast cancer cells. The class given is cell-based. Conditions: for IC50: read-out: MDA MB 231 IC50; for Selectivity MDA MB 231: values match MCF-10A IC50 / MDA MB 231 IC50, formula not given. The protocol: (§1) In vitro toxicity of the compounds described herein were tested on two breast cancer cell lines, MDA-MB-231 and BT-474. These cell lines represent triple negative and HER2-positive breast cancers, respectively. BT474 cell and MDA-MB-231 cells were maintained in DMEM media supplemented with 10% v/v FBS. On reaching confluency (1×10^6 cells/mL in a 25 mL flask), 1×10^6 cells were seeded in 25 mL of fresh supplemented media. The cells were incubated under humidified air containing 5% CO2 at 37° C. Cell density was kept below 1×10^6 cells/mL to ensure exponential growth and to avoid differentiation. Cells were only used between passages 5 and 15 to prevent cell differentiation.
(§2) A standard MTT assay was used to determine the cell viability at 48 hr after an artemisinin derivative was added to the culture medium. Cell viability was above 95% for all experiments. The viable cell count was based on trypan blue exclusion from the cells and was performed in a hemocytometer using a light microscope. To 50 μL of cells was added 20 μL of trypan blue 0.4% solution and 30 μL D-Hanks solution was counted. During experiments cells were exposed to drug stock solutions which were made up in 100% DMSO and the final solvent concentration was 1% v/v in each incubation. Each concentration in every experiment was carried out in triplicate.
(§3) BT474 (2000 cells/100 μL) or MDA-MB-231 cells (7500 cells/100 μL) were seeded on a 96 well plate respectively, and incubated for 24 hr at 37° C. The medium was removed, and replaced it with 200 μL of the complete medium containing artemisinin derivatives. The cells were incubated for 48 hr at 37° C., the medium was removed, and replaced it with 100 μL of fresh complete medium. 10 μL of […] MTT stock solution (D-Hanks) was added to each well. After incubating for 3 hr at 37° C., formazan crystals were solubilized in 50 μL of DMSO and absorbance was measured at 570 nm with BIO-RAD model 680 microplate reader. All data were analyzed using Microsoft Excel. IC50 values were determined with Graphpad Prism 5.

The next series has as its system BT474 cells. The series is described as follows: MTT cell viability assay, BT474 breast cancer cells. The class given is cell-based. The note with it: for IC50: read-out: BT474 IC50; for Selectivity BT474: values match MCF-10A IC50 / BT474 IC50, formula not given. The protocol:
as §1, §2, §3
(In general: Tetrazolium dyes change colour on reduction, which living cells bring about.)

Another series relates to MCF-10A. The series is described as follows: MCF-10A IC50. The class given is cell-based.
The next series has as its system NCI 60 cell lines. Conditions: panel of NCI 60 cell lines; cited from earlier work.
Series [1] has as its system PCa cell lines DU 145, PC-3, C4-2, and LNCaP. The series is described as follows: Cytotoxicity against a panel of four PCa cell lines. Conditions: DU 145, PC-3, C4-2, LNCaP. It is filed as cell-based. Here is the method: The cytotoxicity of artemisinin dimers, dimer-2Py, was evaluated against a panel of four PCa cell lines, DU 145, PC-3, C4-2, and LNCaP.
[2] abbreviates: Homo sapiens, MDA-MB-231, MTT, 48 hr incubation.
Setting [3] is: Homo sapiens, BT-474, MTT, 48 hr incubation.

Regarding `C[C@H]1[C@@H](CC(COC(=O)CCC(=O)O)C[C@H]2O[C@@H]3O[C@@]4(C)CC[C@H]5[C@H](C)CC[C@@H]([C@H]2C)[C@@]35OO4)O[C@@H]2O[C@@]3(C)CC[C@H]4[C@H](C)CC[C@@H]1[C@@]24OO3` (stereo partly shown) [Artemisinin dimer succinate, reference compound], the IC50 came out at 0.24 µM with MDA-MB-231 cells (MTT, 48 hr incubation); 0.1 µM in the series on BT474 cells (MTT, 48 hr incubation); 21 µM in the series on MCF-10A. The “Selectivity MDA MB 231” value with MDA-MB-231 cells turned out to be 88. Moreover, the “Selectivity BT474” value in the series on BT474 cells turned out to be 210. Further, the “times more potent than artemisinin monomers such as artesunate” value in the series on NCI 60 cell lines is listed as “up to 500 times”.
With `C[C@H]1[C@H](OC(=O)CCC(=O)O)O[C@@H]2O[C@@]3(C)CC[C@H]4[C@H](C)CC[C@@H]1[C@@]24OO3` [Artesunate, reference compound], the IC50 in the series on MDA-MB-231 cells (Homo sapiens, MDA-MB-231, 48 h) was 46 µM; in the series with BT474 cells (Homo sapiens, BT-474, 48 h), 7.8 µM; with MCF-10A (Homo sapiens, MCF-10A), 21 µM. In addition, in the series with MDA-MB-231 cells, the “Selectivity MDA MB 231” value is reported as 0.46. Further, in the series on BT474 cells, the “Selectivity BT474” value amounted to 2.7.
As for `COC(=O)CNC(=O)C(CC[C@H]1O[C@@H]2OC3(C)CCC4[C@H](C)CCC([C@H]1C)[C@]42OO3)N(CCC[C@H]1O[C@@H]2OC3(C)CCC4[C@H](C)CCC([C@H]1C)[C@]42OO3)C(=O)C(F)(F)F` (stereo partly shown) [Compound 6a], the IC50 turned out to be 19 µM with MDA-MB-231 cells (setting [2]); 6.6 µM with BT474 cells (setting [3]); 4.6 µM in the series with MCF-10A (Homo sapiens, MCF-10A). In addition, the “Selectivity MDA MB 231” value in the series with MDA-MB-231 cells came to 0.24. The “Selectivity BT474” value with BT474 cells is listed as 0.70.
For the molecule `COC(=O)CNC(=O)C(CC[C@H]1O[C@@H]2OC3(C)CCC4[C@H](C)CCC([C@H]1C)[C@]42OO3)N(CCC[C@H]1O[C@@H]2OC3(C)CCC4[C@H](C)CCC([C@H]1C)[C@]42OO3)C(=O)c1ccccc1` (stereo partly shown) [Compound 6b], the IC50 in the series with MDA-MB-231 cells (setting [2]) worked out at 11 µM; in the series on BT474 cells (setting [3]), 0.79 µM; in the series on MCF-10A (Homo sapiens, MCF-10A), 5 µM. For the same molecule, in the series on MDA-MB-231 cells, the “Selectivity MDA MB 231” value is 0.45. Besides, in the series with BT474 cells, the “Selectivity BT474” value is recorded as 6.3.
Taken in the same sequence, the figures for `COC(=O)CNC(=O)C(CC[C@H]1O[C@@H]2OC3(C)CCC4[C@H](C)CCC([C@H]1C)[C@]42OO3)N(CCC[C@H]1O[C@@H]2OC3(C)CCC4[C@H](C)CCC([C@H]1C)[C@]42OO3)C(=O)c1cccc(OC)c1OC` (stereo partly shown) [Compound 6c] were 12 µM, 5.8 µM, 5.7 µM, 0.48 and 0.98.
Take `COC(=O)CNC(=O)C(CC[C@H]1O[C@@H]2OC3(C)CCC4[C@H](C)CCC([C@H]1C)[C@]42OO3)N(CCC[C@H]1O[C@@H]2OC3(C)CCC4[C@H](C)CCC([C@H]1C)[C@]42OO3)C(=O)c1ccc(N(C)C)cc1` (stereo partly shown) [Compound 6d]: the half-maximal inhibitory concentration (IC50) in the series with MDA-MB-231 cells (setting [2]) was determined as 12 µM; with BT474 cells (setting [3]), 0.88 µM; with MCF-10A (Homo sapiens, MCF-10A) it was 15 µM. For the same molecule, in the series on MDA-MB-231 cells, the “Selectivity MDA MB 231” value amounted to 1.3. The “Selectivity BT474” value in the series on BT474 cells worked out at 17.
In the case of `COC(=O)CNC(=O)C(CC[C@H]1O[C@@H]2OC3(C)CCC4[C@H](C)CCC([C@H]1C)[C@]42OO3)N(CCC[C@H]1O[C@@H]2OC3(C)CCC4[C@H](C)CCC([C@H]1C)[C@]42OO3)C(=O)c1cnccn1` (stereo partly shown) [Compound 6e], the IC50 was found to be 26 µM in the series with MDA-MB-231 cells (setting [2]); 1.7 µM with BT474 cells (setting [3]); 25 µM in the series with MCF-10A (Homo sapiens, MCF-10A). For the same molecule, in the series on MDA-MB-231 cells, the “Selectivity MDA MB 231” value stood at 0.96. Also, in the series with BT474 cells, the “Selectivity BT474” value came to 15.
`COC(=O)CNC(=O)C(CC[C@H]1O[C@@H]2OC3(C)CCC4[C@H](C)CCC([C@H]1C)[C@]42OO3)N(CCC[C@H]1O[C@@H]2OC3(C)CCC4[C@H](C)CCC([C@H]1C)[C@]42OO3)c1ccc([N+](=O)[O-])cc1` (stereo partly shown) [Compound 6f]: the IC50 in the series on MDA-MB-231 cells (setting [2]) stood at 1.2 µM; in the series with BT474 cells (setting [3]) it was 0.096 µM; with MCF-10A (Homo sapiens, MCF-10A) it was 47 µM. The “times less potent than artemisinin dimer succinate” value with MDA-MB-231 cells (MDA-MB-231) is 5 times. Moreover, the “Selectivity MDA MB 231” value with MDA-MB-231 cells came out at 39. Besides, the “Selectivity BT474” value in the series with BT474 cells is recorded as 490.
Take `COC(=O)CNC(=O)C(CC[C@H]1O[C@@H]2OC3(C)CCC4[C@H](C)CCC([C@H]1C)[C@]42OO3)N(C(=O)c1ccccc1)C(C)C` (stereo partly shown) [Compound 7]: the IC50 was > 100 µM in the series on MDA-MB-231 cells (setting [2]); > 100 µM with BT474 cells (setting [3]); > 100 µM in the series on MCF-10A (Homo sapiens, MCF-10A).
On to `C[C@H]1[C@@H](O)O[C@@H]2O[C@@]3(C)CC[C@H]4[C@H](C)CC[C@@H]1[C@@]24OO3` [dihydroartemisinin], for which the cytotoxicity result in series [1] is “negligible activity”.
